Results as given in patent US4906666A, “Hydroxamic acids and pharmaceutical compositions containing them, and anti-allergic use thereof” (Boehringer Mannheim GmbH, priority 1986, dated 1990).

These compounds were tested on passively sensitized strip of pulmonary parenchyma (guinea pig) (assay: Inhibition of antigen-caused constriction of passively sensitized guinea pig pulmonary parenchyma strips in vitro (Organ Bath)). Details: Cavia porcellus, concentration 5 μg/ml, 20 min preincubation at 37° C., ovalbumin constriction, read-out: Inhibition (%) of the antigen-induced constriction, Organ Bath.
Type: cell-based, Pirbright-White guinea pigs
Excerpt: Activity of the inventive compounds was shown by the following testing in vitro. […] For this study of the inventive compounds, a measurement was made of the inhibition of the antigen-caused constriction of passively sensitized strips of guinea pig lung parenchyma, as described herewith:
Pirbright-White guinea pigs were stunned by a blow to the neck and bled. The lungs were flushed largely free of blood in situ with Krebs' buffer, pH 7.4.
Then the lung was removed, cut into strips (approx. 20×4×4 mm) and the strips were passively sensitized for one hour at room temperature with a 1:50 dilution of a homologous anti-ovalbumin antiserum and then washed once with Krebs' buffer.
The antiserum had previously been produced as described by Davies et al, (Quantitative studies on anaphylaxis in guinea pigs passively sensitized with homologous antibody. Inter. Arch. Allergy 41, 648-654 (1971)) in guinea pigs of the same strain by the repeated injection of ovalbumin (2×crystallized) with the addition of complete Freund's adjuvant.
Until it was used, the antiserum was stored undiluted at -18° C.
Then the lung strips were suspended singly in 10-milliliter water baths with a bias weight of 1.2 g on an isometric measuring receptable.
Then the baths were filled with Krebs' buffer and continually gassed at 37°° C. with O2 (95%) and CO2 (5%).
The constrictions of the lung strips were recorded through an amplifier on a plotter.
After a 30-minute habituating phase, histamine control spasms were produced in order to establish the reactivity of the lung specimens, washed, then the test substance was preincubated for 20 minutes at 37° C., and then the ovalbumin constriction was produced.
(§1) The inhibiting action of the compounds according to the invention was expressed as a percentage reduction of the constriction amplitude of the "specimens with the test substance" in proportion to the "untreated control constrictions."

Point of comparison: `C=CCc1c(OCCCSCCc2nn[nH]n2)ccc(C(C)=O)c1O` [Example 6d, 5-{S--[3-(4-acetyl-3-hydroxy-2-allylphenoxy)-propyl]-2-thioethyl}-(1H)-tetrazole], inhibition at 5 µg/mL 24%. Against it:
- CCCc1c(OCCCSCCC(=O)N(C)O)ccc(C(C)=O)c1O [Example 2i, N--hydroxy-N--methyl-S--[3-(4-acetyl-3-hydroxy-2-propyl-phenoxy)-propyl]-3-thio-propionic acid amide] — higher, 36%

Same assay, conditions: concentration 5 μg/ml, 20 min preincubation at 37° C., ovalbumin constriction

With `CCCc1c(OCC#CCSCCC(=O)N(C)O)ccc(C(C)=O)c1O` [Example 2g, N--hydroxy-N--methyl-S--[4-(acetyl-3-hydroxy-2-propyl-phenoxy)-but-2-ynyl]-3-thiopropionic acid amide] the “Inhibition (%) of the antigen-induced constriction, Organ Bath” value was 67%.

What follows are compounds tested on passively sensitized strip of pulmonary parenchyma (guinea pig) (assay: Inhibition of the antigen-induced constriction on the passively sensitized strip of pulmonary parenchyma, Superfusion). Details: Cavia porcellus, concentration 20 μM.
Type: cell-based
Excerpt: as §1

Point of comparison: `CCCc1c(OCCCSCCc2nn[nH]n2)ccc(C(C)=O)c1O` [Example 6b, 5-{S--[3-(4-acetyl-3-hydroxy-2-propylphenoxy)-propyl]-2-thioethyl}-(1H)-tetrazole], inhibition at 20 µM 55%. Against it:
- CCCc1c(OCCCSCC(=O)N(C)O)ccc(C(C)=O)c1O [Example 1, N-Hydroxy-N-methyl-S-[3-(4-acetyl-3-hydroxy-2-propylphenoxy)-propyl]-thioacetamide] — lower, 39%
- CCCCCc1cccc(OCCCSCCC(=O)N(C)O)c1 [Example 2b, N--hydroxy-N--methyl-S--[3-(3-pentylphenoxy)-propyl]-3-thiopropionic acid amide] — higher, 58%
- CCCc1c(OCCCCSCCC(=O)N(C)O)ccc(C(C)=O)c1O [Example 2c, N--hydroxy-N--methyl-S--[4-(4-acetyl-3-hydroxy-2-propyl-phenoxy)-butyl]-3-thio-propionic acid amide] — higher, 72%
- CCCc1c(OCCCCSCC(=O)N(C)O)ccc(C(C)=O)c1O [Example 2f, N--hydroxy-N--methyl-S--[4-(4-acetyl-3-hydroxy-2-propyl-phenoxy)-butyl]-thioacetamide] — lower, 48%
- CCCc1c(OCCCSCCC(=O)N(C)O)ccc(C(C)=O)c1O [Example 2i, N--hydroxy-N--methyl-S--[3-(4-acetyl-3-hydroxy-2-propyl-phenoxy)-propyl]-3-thio-propionic acid amide] — higher, 63%
- CCCCCC(O)c1cccc(OCCCSCCCC(=O)N(C)O)c1 (stereo not shown) [Example 2l, N--hydroxy-N--methyl-S--[3-(3-{1-hydroxyhexyl}-phenoxy)-propyl]-4-thiobutyric acid amide] — lower, 44%
- CCCCCC(O)c1cccc(OCC(O)CSCCCC(=O)N(C)O)c1 (stereo not shown) [Example 2m, N--hydroxy-N--methyl-S--[3-(3-{1-hydroxyhexyl}-phenoxy)-2-hydroxypropyl]-4-thiobutyric acid amide] — lower, 29%
- CCCCCC(O)c1cccc(OCCCCSCCC(=O)N(C)O)c1 (stereo not shown) [Example 2n, N--hydroxy-N--methyl-S--[4-(3-{1-hydroxyhexyl}-phenoxy)-butyl]-3-thiopropronic acid amide] — lower, 33%
- CCCCCC(O)c1cccc(OCC=CCSCCC(=O)N(C)O)c1 (stereo not shown) [Example 2o, N--hydroxy-N--methyl-S--[4-(3-{1-hydroxyhexyl}-phenoxy)-but-2-enyl]-3-thiopropionic acid amide] — lower, 42%
- CCCc1c(OCCCSCCC(=O)ONC2CCCCC2)ccc(C(C)=O)c1O [Example 2t, O--[S--(3-{4-acetyl-3-hydroxy-2-propylphenoxy}-propyl)-3-thiopropionyl]-cyclohexyl-hydroxylamine] — lower, 15%
- CCCCCC(O)c1cccc(OCCCSCCCC(=O)Nc2nn[nH]n2)c1 (stereo not shown) [Example 4c, N--[(1H)-tetrazol-5-yl]-S--[3-(3-{1-hydroxyhexyl}-phenoxy)-propyl]-4-thiobutyric acid amide] — lower, 29%
- CCCCCC(O)c1cccc(OCC(O)CSCCCC(=O)Nc2nn[nH]n2)c1 (stereo not shown) [Example 4d] — higher, 83%
- CCCCCC(O)c1cccc(OCCCCSCCC(=O)Nc2nn[nH]n2)c1 (stereo not shown) [Example 4e, N--[(1H)-tetrazol-5-yl]-S--[4-(3-{1-hydroxyhexyl}-phenoxy)-butyl]-3-thiopropionic acid amide] — higher, 73%
- CCCCCC(O)c1cccc(OCC=CCSCCC(=O)Nc2nn[nH]n2)c1 (stereo not shown) [Example 4f, N--[(1H)-tetrazol-5-yl]-S--[4-(3-{1-hydroxyhexyl}-phenoxy)-but-2-enyl]-3-thiopropionic acid amide] — lower, 26%
- O=C(CCSCCCOc1ccc(Cl)c(Cl)c1)Nc1nn[nH]n1 [Example 4g, N--[(1H)-tetrazol-5-yl]-S--[3-(3,4-dichlorophenoxy)-propyl]-3-thiopropionic acid amide] — higher, 75%
- CCCc1c(OCCCSCCCCCc2nn[nH]n2)ccc(C(C)=O)c1O [Example 6a, 5-{S--[3-(4-acetyl-3-hydroxy-2-propylphenoxy)-propyl]-5-thiopentyl}-(1H)-tetrazole] — higher, 70%
- CCCCCc1ccccc1OCCCSCCc1nn[nH]n1 [Example 6c, 5-{S--[3-(2-pentylphenoxy)-propyl]-2-thioethyl}-(1H)-tetrazole] — lower, 13%
- CCCc1c(OCCCSCCSc2nn[nH]n2)ccc(C(C)=O)c1O [Example 7, {S-[3-(4-Acetyl-3-hydroxy-2-propylphenoxy)-propyl]-2-thioethyl}-5-mercapto-(1H)-tetrazole] — lower, 29%
- CCCCCC(O)c1cccc(OCCCSCCCC(=O)NO)c1 (stereo not shown) [Example 9a, N--hydroxy-S--[3-(3-{1-hydroxy-hexyl}-phenoxy)-propyl]-4-thiobutyric acid amide] — lower, 11%
- CCCCCC(O)c1cccc(OCC(O)CSCCCC(=O)NO)c1 (stereo not shown) [Example 9b, N--hydroxy-S--[3-(3-{1-hydroxy-hexyl}-phenoxy)-2-hydroxy-propyl]-4-thiobutyric acid amide] — lower, 21%
- CCCCCC(O)c1cccc(OCCCCSCCC(=O)NO)c1 (stereo not shown) [Example 9c, N--hydroxy-S--[4-(3-{1-hydroxy-hexyl}phenoxy)-butyl]-3-thiopropionic acid amide] — lower, 27%
